Experiments:
PAF-antibodies = experiment: Competition assay of test substance against ^3 H-PAF for binding to PAF-antibodies; design: species or system rabbit; details: ^3 H-PAF 22,676 cpm
Experimental: The resulting mixture was centrifuged, washed twice with phosphate buffered saline containing 0.1% "Tween" 20, centrifuged and the sediment transferred in water (200 μl) to the liquid scintillant "Aquasol" (3 ml) and counted in a liquid scintillation counter.

PAF-acetylhydrolase [1] = experiment: Determination of PAF-acetylhydrolase activity in diluted human serum (remaining PAF read by platelet aggregation); format: biochemical; details: human sera diluted 1 in 100 with PBS, 27 hours at 25° C.
Experimental: (§1) Sera were diluted 1 in 100 in either PBS or 0.1% "Tween" in PBS (v/v). Diluted acid-treated sera were prepared by mixing sera (1 vol.) with 0.1M citrate buffer pH 3.0 (2 vol.), and then 15 minutes later with PBS ([…].).
(§2) The solution (50μl) was then tested for platelet aggregation activity at 37° C. in a Payton dual channel aggregometer using human platelet-rich plasma (500 μl).

PAF-acetylhydrolase [2] = experiment: Determination of PAF-acetylhydrolase activity in diluted rabbit serum (remaining PAF read by platelet aggregation); format: biochemical; details: rabbit sera diluted 1 in 100 with PBS, 27 hours at 25° C.
Experimental: as §1, §2

Compound | ASSAY COUNT (PAF-antibodies; test substance 580 ng) | ASSAY COUNT (PAF-antibodies; test substance 5,800 ng) | ASSAY COUNT (PAF-antibodies; test substance 500 ng) | ASSAY/CONTROL (PAF-antibodies; test substance 500 ng) | ASSAY COUNT (PAF-antibodies; test substance 5,000 ng) | ASSAY/CONTROL (PAF-antibodies; test substance 5,000 ng) | stability of PAF in serum (PAF-acetylhydrolase [1]) | stability of PAF in serum (PAF-acetylhydrolase [2]) | ASSAY COUNT (PAF-antibodies; test substance 0.5 ng) | ASSAY/CONTROL (PAF-antibodies; test substance 0.5 ng) | ASSAY COUNT (PAF-antibodies; test substance 5 ng) | ASSAY/CONTROL (PAF-antibodies; test substance 5 ng) | ASSAY COUNT (PAF-antibodies; test substance 50 ng) | ASSAY/CONTROL (PAF-antibodies; test substance 50 ng)
CCCCCCCCCCCCCCCCOC[C@@H](O)COP(=O)([O-])OCC[N+](C)(C)C [lyso-PAF] | 2,744 cpm | 2,746 cpm | – | – | – | – | – | – | – | – | – | – | – | –
lyso-lecithin | – | – | 2,668 cpm | 99.4% | 2,658 cpm | 99.0% | – | – | – | – | – | – | – | –
lecithin | – | – | 2,545 cpm | 99.6% | 2,994 cpm | – | – | – | – | – | – | – | – | –
1-O-alkyl-2-O-acetyl-sn-glycero-3-phosphocholine [PAF] | – | – | 598 cpm | 18.6% | 228 cpm | 4.1% | destroyed | destroyed | 2,561 cpm | 95.2% | 2,316 cpm | 85.7% | 1,602 cpm | 57.8%
